Source: patent US20200093776A1, “MUCOSAL IMMUNOSTIMULATOR” (Yamada Bee Company, Inc., priority 2015, published 2020)

Experiments:
Caco-2 cells [1] = assay: M-cell differentiation induction test, FACS analysis using GP2 as an indicator; assay type: cell-based, human; details: Caco-2 single-layer film, final concentration 100 μM, cultured 3 days; for expression of GP2 (FACS): vs DMSO control
Protocol: (§1) As an in vitro M-cell model, Caco-2 cells derived from human intestinal epithelium cells were used. The Caco-2 cells were cultured in an EMEM medium (produced by Nissui Pharmaceutical Co., Ltd.) supplemented with 2% fetal calf serum (FCS, produced by CANSERA INTERNATIONAL), 2 mM glutamine (produced by Wako Pure Chemical Industries, Ltd.), and 0.1 mM nonessential amino acid (produced by Gibco) at 37° C. in the presence of 5% CO2. The cells were subcultured within a range of logarithmic growth (2.0×10^5 to 1.0×10^6 cells/mL). The cell concentration was determined by counting the number of living cells and the number of dead cells by the trypan blue staining method.
The induction of the differentiation of M cells by various fatty acids (10-hydroxydecanoic acid, (+/−)-3-hydroxydecanoic acid, (9R)-9,10-dihydroxydecanoic acid, and 10-hydroxy-2-(E)-decenoic acid) was analyzed by FACS using GP2 as an indicator. As the 10-hydroxydecanoic acid (10HDAA), one produced by SIGMA-ALDRICH was used; as the (+/−)-3-hydroxydecanoic acid (311DAA), one produced by SIGMA-ALDRICH was used; and as the 10-hydroxy-2-(E)-decenoic acid (10-HDA), one produced by Wako Pure Chemical Industries, Ltd. was used. The (9R)-9,10-dihydroxydecanoic acid (DDA-11) used was, synthesized based on the method described in Tetrahedron: Asymmetry, 2009, 20, pp. 457-460, by tosylating (4R)-4-(2-hydroxyethyl)-2,2-dimethyl-1,3-dioxolane, and extending the chain with 5-bromo-1-pentene by a Grignard reaction, followed by ozone degradation, Wittig reaction with diethylphosphonic acid ethyl ester, hydrogenation by a catalytic hydrogenation reaction, removal of acetonide by acetic acid treatment, and removal of the ethyl group by potassium hydroxide treatment.
Each of the above fatty acids was prepared as a DMSO solution (10 mM). After the Caco-2 cells were seeded in a 6-well plate and allowed to form a single-layer film, each of the above fatty acids was added so that the final concentration was […]. The same amount of DMSO was added as a control. The medium was as described above. After addition, the cells were cultured at 37° C. in the presence of 5% CO2 for 3 days. After culture, the cells were collected with 1 mM EDTA.2Na/PBS(−) (pH 7.2), and stained with rabbit anti-GP2 antibody (produced by IMGENEX) and Alexa 488-labeled anti-rabbit antibody (produced by Molecular probes). The stained cells were analyzed by FACS (produced by BECKMAN COULTER), and GP2 expression levels were quantified.

Caco-2 cells [2] = assay: M-cell differentiation induction test, morphological analysis by electron microscope; assay type: cell-based, human; details: Caco-2 in Transwell insert, 100 μM applied from the apical side, 3 days
Protocol: as §1
After the Caco-2 cells were seeded at 2×10^5 cells in a Transwell insert ([…] Transwell, produced by Corning) and allowed to form a single-layer film, 10-hydroxydecanoic acid (final concentration: […]) was applied from the apical side of the single-layer film, and the cells were cultured at 37° C. in the presence of 5% CO2 for 3 days.

cynomolgus monkeys = tested on: cynomolgus monkeys; set-up: species or system Macaca fascicularis; details: cynomolgus monkey, in vivo, po

CCCCCCCC(O)CC(=O)O (racemic) [(+/−)-3-hydroxydecanoic acid]
expression of GP2 (FACS) (Caco-2 cells [1]): induced the expression of GP2

O=C(O)/C=C/CCCCCCCO [10-hydroxy-2-(E)-decenoic acid, reference compound]
expression of GP2 (FACS) (Caco-2 cells [1]): did not induce the expression of GP2

O=C(O)CCCCCCCCCO [10-hydroxydecanoic acid]
cell morphology (microvilli, M cell-like cells) (Caco-2 cells [2]): cells with short microvilli were observed | intensity of induction of GP2 expression compared with (+/−)-3-hydroxydecanoic acid (Caco-2 cells [1]): induced more intensely the expression of GP2 | expression of GP2 (FACS) (Caco-2 cells [1]): induced the expression of GP2 | anti-Fetuin IgA antibody titer in the feces (cynomolgus monkeys): increases | anti-influenza virus IgA antibody titer in the feces (cynomolgus monkeys): increases | anti-poliovirus IgA antibody titer in the feces (cynomolgus monkeys): increases

O=C(O)CCCCCCC[C@@H](O)CO [(9R)-9,10-dihydroxydecanoic acid, reference compound]
expression of GP2 (FACS) (Caco-2 cells [1]): did not induce the expression of GP2
